Values joined by “and” are separate entries in the source; they are usually repeats but may differ in a detail not shown here. Identical values can stand only once.

The values that follow come from article PMC10779086, “3-O-Methyltolcapone and Its Lipophilic Analogues Are Potent Inhibitors of Transthyretin Amyloidogenesis with High Permeability and Low Toxicity” (International Journal of Molecular Sciences, 2023).

The nature of series [1]: Blood-brain barrier permeability (PAMPA-BBB). In kind it is in vitro ADME. Particulars: for Papp: PBS pH 7.4, read-out: BBB-Pe; for CNS Class: classified by Pe; for permeability (Pe) times higher compared to tolcapone: relative to tolcapone. How it is done: (§1) The assay combines solubility and a non-cell-based Blood Brain Barrier permeability assay (Parallel Artificial Membrane Permeation Assay; PAMPA-BBB) into a single workflow in which a portion of the filtrate from the Solubility filter plate is added to the donor compartment of the MultiScreen filter plate for the PAMPA-BBB analysis. […] Solutions were filtered into a 96-well collection plate using vacuum filtration and then analysed by UV/Vis spectroscopy. The relative solubility was then calculated using the sum of the recorded values as compared to a standard calibration curve. […] PAMPA-BBB determination was carried out in a 96-well MultiScreen Permeability plate and the ability of a compound to diffuse from a Donor to an Acceptor compartment separated by a Porcine Brain Lipid Extract (PBLE) dissolved in dodecane (20 mg/mL) layer on a PVDF membrane support was measured. The assay was performed in duplicate in PBS at pH 7.4 and the analysis is carried out by UV/Vis spectroscopy.
The compounds are classified into 2 types: CNS+ compounds that can cross the BBB and CNS- compounds that cannot according to the Pe values (BBB−, Pe < 2 × 10^−6 cm/s; BBB +/−, 2 × 10^−6 cm/s < Pe < 4 × 10^−6 cm/s; BBB+, Pe > 4 × 10^−6 cm/s).
Membrane retention is also evaluated according to Equation (1), (1) 1−Rm=CAccVAcc+CDonorVDonor/Sol×VDonor where Rm is the membrane retention factor. 1 − Rm between 1.2 and 0.8 is considered fully acceptable for the reliability of the results.

The target in series [2] is T1, TTR (Homo sapiens, UniProt P02766). Description: TTR tetramer stability in diluted human plasma with urea, by immunoblotting. In kind it is biochemical. On the set-up: from tissue; host or cells: human plasma. Particulars: 4 M urea, versus DMSO control. How it is done: The TTR tetramer stability assay in the presence of urea and TTR ligands was performed according to a previously reported Western Blot procedure, with some modifications as follows. Aliquots of human plasma were diluted 8-fold in sodium phosphate buffer (NaP 40 mM, NaCl 150 mM pH 7.4) supplemented with 2 µM or 20 µM of each ligand. A plasma aliquot supplemented with DMSO was used as a negative control. After 2 h of incubation at 20 °C, an equal volume of 8 M urea in sodium phosphate buffer was added to obtain a final 4 M urea concentration and final ligand concentration of 1 µM or 10 µM. Incubation was prolonged for 18 h at 20 °C, followed by non-denaturing SDS-PAGE using Tris-Glycine buffers containing 0.025% of SDS in the running buffer and 0.2% of SDS in the Laemmli buffer. […] Blotting was accomplished with a Trans-Blot SD transfer apparatus (BIORAD), followed by incubation of nitrocellulose membranes with blocking buffer containing 5% skim milk overnight at 25 °C. Immunodetection of TTR monomers was performed by employing rabbit anti-human TTR polyclonal antibody (Dako) as a primary and goat anti-rabbit antibody labelled with DyLight 680 ([…]) as a secondary. Western Blot images were recorded by using ChemiDoc MP imaging system (BIORAD) and analysed with Image Lab software v. 5.1 (BIORAD). The experiment was performed in triplicate, and ligands stabilisation capability was evaluated as the relative intensity of the TTR monomer in each condition in comparison to the negative control. Statistical analyses by means of ANOVA and graphic representations were performed with GraphPad Prism.
(In general: In western blotting, separated proteins are transferred to a membrane and probed.)

For series [3], the target named is T1, TTR. Description: Isothermal titration calorimetry (ITC), one-binding-site model. On the set-up: made in house; host or cells: E. coli BL21; ∆S: unit not given here. Particulars: single-binding-site model, 25 °C; for Kd: pH 7.4, 5% DMSO. How it is done:
At an absorbance value of 600 nm around 0.3, the temperature was shifted to 30 °C.
Data were fitted using the “one-binding-site model” of the Malvern version of ORIGIN v.7. The heat of binding (ΔH), the stoichiometry (n), entropy (ΔS) and the dissociation constant (Kd) were then calculated from plots of the heat evolved per mole of ligand injected versus the molar ratio of ligand to protein using the software provided by the vendor (Table 3). Sample preparation is detailed below. […] A 10 µM protein stock in 2× buffer was then prepared and diluted 1:1 with a 10% DMSO solution, to obtain a 5 µM TTR solution in 1× buffer A and 5% DMSO. Different protein concentrations (3–5 µM) assayed in the replicates were prepared accordingly, starting from a 2× protein solution in 2× buffer A. Each ligand was dissolved in 100% DMSO and a 2 mM stock solution in 100% DMSO was prepared. A 200 µM compound solution was obtained in 10% DMSO and diluted 1:1 with 2× buffer A, to obtain a 100 µM ligand solution to be used for the ITC assays (in 1× buffer A and 5% DMSO).

Series [4] in a line: Kinetic solubility in PBS. In kind it is physicochemical. The following applies: Phosphate Buffered Saline (PBS), aqueous buffer, kinetic from dmso stock, PBS pH 7.4, 1% DMSO. How it is done: as §1
A short description of series [5]: Caco-2 intestinal permeability. In kind it is in vitro ADME, human. Particulars: human; for efflux ratio at 60 min, 10 μM: Caco-2, pH 7.4, without inhibitor, read-out: Efflux Ratio (Papp BA/Papp AB); for Papp A→B at 60 min, 10 μM / Papp B→A at 60 min, 10 μM: Caco-2, pH 7.4. How it is done:
Caco-2 cells (cod. HTB-37) were bought from ATCC (American Type Culture Collection, Rockville, MD, USA). Caco-2 cells were cultured for 21 days on a 24 trans-well plate to reach the right confluence and differentiate until the formation of the intestinal epithelium mimetic monolayer. The test substance permeability was measured in both directions (apical to basolateral [A→B] and basolateral to apical [B→A]) across the cell monolayer. The assay was carried out in HBSS transport medium at pH 7.4. Test substance at single concentration (10 μM) was tested in duplicate at one time point (60 min). Monolayer integrity of Caco-2 cells was evaluated by TEER measurements during the experiment and by Lucifer Yellow test after the incubation with the test compound. The concentrations of the test substance and/or reference controls were measured by LC-MS/MS.
When the inhibitor leads the efflux ratio to a significant reduction (>50%) or to unity, the test compound is classified as a probable substrate of that efflux transporter. As control, the modulation of the efflux ratio of a reference known substrate (Digoxin) was evaluated with or without the respectively inhibitors in every experiment. […] In parallel, mass balance (%) of recovered test substance was also determined. […] Outside these ranges the permeability data is not reliable.

Series [6] concerns HepG2 human liver cancer cell line. In words: Cytotoxicity in HepG2 cells (ATP viability assay). In kind it is cell-based. Particulars: 48 h. How it is done:
Compounds were dissolved at the concentration of 50 mM in DMSO.
DMSO normalisation at 1.0% was performed in each well.
Cell viability was evaluated by measuring ATP levels using CellTiter Glo (Promega Cat.n. G7570) according to manufacturer’s instructions.

A word on the Kd: it is the free concentration of one partner at which half of the binding sites on the other are occupied at equilibrium, for simple one-to-one binding. As usually defined, the solubility is the concentration that dissolves in the medium under given conditions. By Papp A→B is commonly meant the apparent permeability from the apical to the basolateral side of a cell layer. One may read the Papp B→A as the apparent permeability from the basolateral to the apical side of a cell layer. Usually EC50 stands for the concentration at which the effect is half-maximal. As to `COc1cc(C(=O)c2cc(C)cc(C)c2)cc([N+](=O)[O-])c1O` [Compound 1, (4-Hydroxy-3-methoxy-5-nitrophenyl)-1-(3,5-dimethylphenyl)methanone], in series [1], the “1-Rm (membrane retention)” value is 0.9; the Papp stood at 15.3 ×10⁻⁶ cm/s; the “CNS Class” value is listed as “CNS+ (BBB+, Pe > 4 × 10^−6 cm/s)”; the “permeability (Pe) times higher compared to tolcapone” value (from here on “permeability … compared to tolcapone”) was found to be 2.5 times. For the same compound, the “relative abundance of TTR monomer” value in series [2] (ligand 1 µM) is 17% and 17.2 ± 2.1%. The “relative abundance of TTR monomer” value in series [2] (ligand 10 µM) was found to be 9.5 ± 2.8%. In addition, in series [3], the “n (stoichiometry of binding, ligand:TTR tetramer)” value came out at 1.8 ± 0.1; the “∆H” value is -11.5 kcal/mol and -11.5 ± 1.3 kcal/mol; the “∆S” value was −2.9 ± 0.9; binding was characterised by a dissociation constant (Kd) of 0.071 ± 0.026 µM. This compound came in with a solubility in series [4] of over 500 µM. The compound further gave a recovery at 60 min, 10 µM in series [5] (Caco-2, pH 7.4, A→B) of 64 ± 4%. The compound further returned a recovery at 60 min, 10 µM in series [5] (Caco-2, pH 7.4, B→A) of 77 ± 2%. Moreover, in series [5], the efflux ratio at 60 min, 10 μM was 1; the Papp A→B at 60 min, 10 μM amounted to 24 ± 2.1 ×10⁻⁶ cm/s; the Papp B→A at 60 min, 10 μM was determined as 23.1 ± 2.3 ×10⁻⁶ cm/s. This compound came in with an EC50 in series [6] of 410 ± 33 µM.

On to `COc1cc(C(=O)c2ccc(C)cc2)cc([N+](=O)[O-])c1O` [3-OMT, 3-O-methyltolcapone], for which, in series [1], the “1-Rm (membrane retention)” value amounted to 0.9; the Papp is 14.4 ×10⁻⁶ cm/s; the “CNS Class” value is on record as “CNS+ (BBB+, Pe > 4 × 10^−6 cm/s)”; the “permeability … compared to tolcapone” value is listed as 2.5 times. In addition, the “relative abundance of TTR monomer” value in series [2] (ligand 1 µM) was 14% and 14.1 ± 1.8%. Further, the “relative abundance of TTR monomer” value in series [2] (ligand 10 µM) is 9.4 ± 1.5%. For the same compound, in series [3], the “n (stoichiometry of binding, ligand:TTR tetramer)” value is 1.9 ± 0.2; the “∆H” value was -8.9 kcal/mol and -8.9 ± 0.3 kcal/mol; the “∆S” value turned out to be 4.6 ± 0.5; the affinity, expressed as Kd, was 0.033 ± 0.009 µM. This compound also gave a solubility in series [4] of over 500 µM. The recovery at 60 min, 10 µM in series [5] (Caco-2, pH 7.4, A→B) stood at 66 ± 4%. In series [5] (Caco-2, pH 7.4, B→A), this compound came in with a recovery at 60 min, 10 µM of 83 ± 8%. Besides, in series [5], the efflux ratio at 60 min, 10 μM was determined as 1.5; the Papp A→B at 60 min, 10 μM worked out at 16 ± 2.9 ×10⁻⁶ cm/s; the apparent permeability from basolateral to apical (Papp B→A) at 60 min, 10 μM came to 24.3 ± 3 ×10⁻⁶ cm/s. Also, the EC50 in series [6] came out at 262 ± 20.7 µM.

Take `COc1cc(C(=O)c2ccc(C)cc2C)cc([N+](=O)[O-])c1O` [Compound 2, (4-Hydroxy-3-methoxy-5-nitrophenyl)-1-(2,4-dimethylphenyl)methanone]: in series [1], the “1-Rm (membrane retention)” value amounted to 1.0; the Papp amounted to 13.5 ×10⁻⁶ cm/s; the “CNS Class” value was “CNS+ (BBB+, Pe > 4 × 10^−6 cm/s)”; the “permeability … compared to tolcapone” value was determined as 2.5 times. Besides, in series [2] (ligand 1 µM), the “relative abundance of TTR monomer” value was 7% and 7.5 ± 0.4%. For the same compound, the “relative abundance of TTR monomer” value in series [2] (ligand 10 µM) is 9.2 ± 1.5%. Moreover, in series [3], the “n (stoichiometry of binding, ligand:TTR tetramer)” value amounted to 2.1 ± 0.3; the “∆H” value was -10.5 kcal/mol and -10.5 ± 0.2 kcal/mol; the “∆S” value is given as −0.4 ± 0.1; the Kd amounted to 0.025 ± 0.005 µM. Further, in series [4], the solubility was over 500 µM. The compound further came in with a recovery at 60 min, 10 µM in series [5] (Caco-2, pH 7.4, A→B) of 69 ± 8%. Further, the recovery at 60 min, 10 µM in series [5] (Caco-2, pH 7.4, B→A) stood at 80 ± 9%. Moreover, in series [5], the efflux ratio at 60 min, 10 μM turned out to be 1; the Papp A→B at 60 min, 10 μM was found to be 25 ± 0.3 ×10⁻⁶ cm/s; the Papp B→A at 60 min, 10 μM worked out at 26.8 ± 2.5 ×10⁻⁶ cm/s. The EC50 in series [6] was determined as 216 ± 2.2 µM.
